Measured values from patent US11559527B2 (priority 2017, dated 2023).

Tests used:
MCF7 cells [1] = test: Scratch assay (wound closure, migration); assay type: cell-based, Human; details: 48 hours, vs vehicle
Description: It is though that CSCs are responsible for metastatic spread and growth. Emerging evidence highlights the role of mitochondrial dynamics in tumor cell dissemination. […] In migrating cancer cells mitochondria accumulate at the leading edge where processes requiring high energy occur, such as formation of focal adhesions. Fission seems to be a prerequisite for that efficient relocation of mitochondria. Indeed, upregulation/activation of DRP1 is associated with a migratory and invasive phenotype in cancer. […] Through a scratch assay, were cells were cultured in the presence of either vehicle or mDIVI-1. The scratch was monitored over time and the percentage of wound closure was measured as described previously.
SCRATCH ASSAY: A hundred thousand MCF7 cells per well were seeded in 12-well plates. When cells were attached, a horizontal scratch was performed using the tip of a pipette. Immediately after, the media was removed and either fresh vehicle-containing media or mDIVI-1-containing media were added to the cells for 48 hours. Four replicates were used for each condition. […] The wound closure was monitored by taking pictures of each well every 4 hours. At the end of the treatment, pictures of the wells at 0 and 48 hours were analysed using ImageJ software to calculate wound closure according to the following formula: Percentage wound closure=[(wound area0 h−wound area48 h)/wound area0 h]×100.

MCF7 cells [2] = test: Label-free quantitative proteomics; assay type: cell-based, Human; details: MCF7, 10 μM
Description: Following protein digestion with trypsin, peptide fractions were processed on an LTQ-Orbitrap XL mass spectrometer. Those peptides identified were further analyzed to find proteomic changes between mDIVI-1-treated and vehicle-treated MCF7 cells, as described before. […] First, the inventors searched the proteomics datasets for changes in proteins involved in metabolism. […] That may possibly translate into a loss of antioxidant power, as the pentose phosphate pathway is a major source of NADPH.
LABEL-FREE SEMI-QUANTITATIVE PROTEOMICS: Chemicals and sample preparation. Formic acid, trifluoroacetic acid, ammonium formate (10 M), ammonium bicarbonate TCEP (Tris (2-carboxyethyl)phosphine hydrochloride), MMTS (Methyl methanethiosulfonate) and trypsin were all obtained from Sigma. HPLC gradient grade acetonitrile was obtained from Fisher Scientific. Briefly, 2×10^6 MCF7 cells were seeded in 15 cm plates until cells were attached. […] As control, vehicle-treated cells were processed in parallel. After 48 hours of treatment, cells were lysed in RIPA buffer (R0278, Sigma) and kept at 4° C. for 20 minutes with rotation. Lysates were cleared by centrifugation for 10 minutes at 10,000×g and supernatants were collected and kept frozen at −80° C.
PROTEIN DIGESTION: Lysate samples were thawed to room temperature and their concentrations equalized to 1 μg/μL (50 μL volume) with RIPA buffer, and further processed for trypsin digestion by sequential reduction of disulphide bonds with TCEP and alkylation with MMTS. Briefly, 1 μL benzonase (Novagen) was added to the 50 μL aliquot and placed on ice for 15 minutes. The sample was then taken to dryness using a SpeedVac, and resuspended in 22.5 μL trypsin reaction buffer (40 mM ammonium bicarbonate and 9% acetonitrile). One μL of 50 mM TCEP solution was added to each sample, mixed briefly and placed on a heater block at 60° C. for 60 minutes. After cooling to room temperature, 0.5 μL of 200 mM MMTS solution was added to each sample and allowed to react for 15 minutes. Trypsin was added in two waves to ensure efficient digestion of the sample. Firstly, 20 μg of sequencing grade trypsin was resuspended in 1800 μL of trypsin reaction buffer; 225 μL of this solution were added to each sample for digestion, and the reactions were left at 37° C. overnight with shaking (600 rpm). The following morning, a further aliquot of trypsin was added. Two ml of trypsin reaction buffer was added to 20 μL of sequencing grade trypsin; 250 μL of this solution were added to each of the digest samples from overnight, and the reactions were left at 37° C. for 4 hours with shaking (600 rpm). Thirty-five μL 10% formic acid were added to the 500 μL digest sample (0.7% final concentration of formic acid) to stop the digestion. The digested solution was diluted in 7.5 mL of acetonitrile containing 0.3% formic acid.
HILIC solid phase extraction (SPE) of peptides. PolyhydroxyethylA SPE 12 μm, 300 A, 300 mg cartridges (obtained from PolyLC) were used for the HILIC procedure. Prior to use, cartridges required an overnight soak in 50 mM formic acid followed by rinsing with water the following day. Cartridges were preconditioned with 2 mL of Buffer A (90% acetonitrile, 5 mM ammonium formate, pH 2.7) followed by 2 mL of Buffer B (5 mM ammonium formate, pH 2.7) and finally re-equilibrated with 10 mL Buffer A. The diluted samples were loaded onto the cartridges and washed with a further 10 mL Buffer A. Finally, peptides were eluted in 1 mL Buffer C (9 parts Buffer B plus 1 part Buffer A) and the samples dried on a Speedvac to remove organic solvent prior to LC-MS/MS analysis.
LC-MS/MS analysis. Lyophilised digests were resuspended in 50 μL of 0.1% TFA to give an approximate concentration of 1 μg/μL. One μL injection volumes were used throughout resulting in an on-column peptide loading of approximately 1 μg per injection. Analysis was performed in quintuplicate for each sample. […]

A375 melanoma cells = test: Tumorsphere formation assay, A375; assay type: cell-based
Experimental: One of the gold standard techniques for the study and identification of CSCs is the sphere formation assay, an in vitro culture system that enriches for CSCs. Under these anchorage-independent culture conditions, CSCs preferentially form the so-called tumorspheres, whereas more differentiated cells die rapidly.
TUMORSPHERE FORMATION ASSAY: A single cell suspension was prepared using enzymatic (1× Trypsin-EDTA, T3924, Sigma Aldrich), and manual disaggregation (25 gauge needle). […] After 5 days of culture in a humidified incubator at 37° C., tumorspheres bigger than 50 μm were counted using an eye piece graticule.

COc1cc(-n2c(S)nc3ccccc3c2=O)c(Cl)cc1Cl [mDIVI-1, 3-(2,4-Dichloro-5-methoxyphenyl)-2-sulfanyl-4(3H)-quinazolinone]
reduction of percentage of wound closure (MCF7 cells [1]; 10 μM): 14% | reduction of percentage of wound closure (MCF7 cells [1]; 50 μM): 44% | Change in expression: Hexokinase 1 (HK1) (MCF7 cells [2]; Glycolysis, 48 hours): ↓Infinite | BMP7 expression change (proteomics) (MCF7 cells [2]; 48 hours vs vehicle): −47.17 | CELSR2 expression change (proteomics) (MCF7 cells [2]; 48 hours vs vehicle): −1.6 | EPCAM expression change (proteomics) (MCF7 cells [2]; 48 hours vs vehicle): −1.58 | EphA2 expression change (proteomics) (MCF7 cells [2]; 48 hours vs vehicle): −1.74 | F11 receptor expression change (proteomics) (MCF7 cells [2]; 48 hours vs vehicle): −1.70 | LAMP1 expression change, upregulated (proteomics) (MCF7 cells [2]; 48 hours vs vehicle): 2.83 | STAT3 expression change (proteomics) (MCF7 cells [2]; 48 hours vs vehicle): −1.83 | ZO-1 expression change (proteomics) (MCF7 cells [2]; 48 hours vs vehicle): −1.62 | collagen type IV upregulation (proteomics) (MCF7 cells [2]; 48 hours vs vehicle): 1.9 fold | desmoplakin expression change (proteomics) (MCF7 cells [2]; 48 hours vs vehicle): −4.58 | junction plakoglobin expression change (proteomics) (MCF7 cells [2]; 48 hours vs vehicle): −1.65 | keratin 8 expression change (proteomics) (MCF7 cells [2]; 48 hours vs vehicle): −5.24 | keratin 18 expression change (proteomics) (MCF7 cells [2]; 48 hours vs vehicle): −12.21 | decrease of tumorsphere forming capacity (A375 melanoma cells; A375, 10 μM): over 35% | decrease of tumorsphere forming capacity (A375 melanoma cells; A375, 50 μM): over 90%
